How the values were obtained:
[1] = tested on: S. aureus ATCC 29213; assay: MIC vs. S. aureus ATCC 29213; format: cell-based, Staphylococcus aureus; design: unit not given beside the values; details: Incubated at 37° C. overnight
Excerpt: (§1) Tables 2 and 2a summarize the minimal inhibitory concentrations (MIC's) at which illustrative formula I compounds and cephalothin inhibit certain microorganisms that are associated with mastitis, such as Staphylococcus aureus 10092 (Newbould strain).

[2] = tested on: S. aureus 174 C; assay: MIC vs. S. aureus 174 C; format: cell-based, Staphylococcus aureus; design: unit not given beside the values; details: Incubated at 37° C. overnight
Excerpt: as §1

[3] = tested on: Staphylococcus aureus 10092 (Newbould strain); assay: MIC vs. S. aureus 10092 (Newbould strain); format: cell-based; design: unit not given beside the values; details: Table 2a
Excerpt: as §1

[4] = tested on: S. aureus F1C; assay: MIC vs. S. aureus F1C; format: cell-based, Staphylococcus aureus; design: unit not given beside the values; details: Incubated at 37° C. overnight
Excerpt: as §1

[5] = tested on: Streptococcus uberis 150 L; assay: MIC vs. Streptococcus uberis 150 L; format: cell-based; design: unit not given beside the values; details: Incubated at 37° C. overnight
Excerpt: as §1

[6] = tested on: Streptococcus uberis 166 L; assay: MIC vs. Streptococcus uberis 166 L; format: cell-based; design: unit not given beside the values; details: Incubated at 37° C. overnight
Excerpt: as §1

[7] = tested on: Streptococcus agalactiae 150 B; assay: MIC vs. Streptococcus agalactiae 150 B; format: cell-based; design: unit not given beside the values; details: Incubated at 37° C. overnight
Excerpt: as §1

[8] = tested on: Streptococcus dysgalactiae; assay: MIC vs. Streptococcus dysgalactiae; format: cell-based; design: unit not given beside the values; details: Incubated at 37° C. overnight
Excerpt: as §1

[9] = tested on: Staphylococcus epidermidis 174B; assay: MIC vs. Staphylococcus epidermidis 174B; format: cell-based; design: unit not given beside the values; details: Table 2a
Excerpt: as §1

[10] = tested on: Staphylococcus aureus 168H; assay: MIC vs. Staphylococcus aureus 168H; format: cell-based; design: unit not given beside the values; details: Table 2a
Excerpt: as §1

[11] = tested on: Streptococcus agalactiae 150G; assay: MIC vs. Streptococcus agalactiae 150G; format: cell-based; design: unit not given beside the values; details: Table 2a
Excerpt: as §1

[12] = tested on: Streptococcus uberis 167I; assay: MIC vs. Streptococcus uberis 167I; format: cell-based; design: unit not given beside the values; details: Table 2a
Excerpt: as §1

[13] = tested on: Streptococcus dysgalactiae 152B; assay: MIC vs. Streptococcus dysgalactiae 152B; format: cell-based; design: unit not given beside the values; details: Table 2a
Excerpt: as §1

[14] = tested on: Staphylococcus aureus 170C; assay: MIC vs. Staphylococcus aureus 170C; format: cell-based; design: unit not given beside the values; details: Table 2a
Excerpt: as §1

[15] = tested on: Streptococcus faecalis; assay: MIC vs. Streptococcus faecalis; format: cell-based; design: unit not given beside the values; details: Table 2a
Excerpt: as §1

[16] = tested on: Pasteurella multocida 108E (bovine); assay: MIC vs. Pasteurella multocida 108E (bovine); format: cell-based; details: Incubated at 37° C. overnight
Excerpt: (§2) The formula I compounds are also active against certain Gram-negative species. Tables 3 and 3a show the MIC's of Formula I compounds against certain Gram-negative species.

[17] = tested on: Pasteurella multocida ATCC 12945; assay: MIC vs. Pasteurella multocida ATCC 12945; format: cell-based; details: Incubated at 37° C. overnight
Excerpt: as §2

[18] = tested on: Pasteurella multocida 1051 (swine); assay: MIC vs. Pasteurella multocida 1051 (swine); format: cell-based; details: Incubated at 37° C. overnight
Excerpt: as §2

[19] = tested on: Pasteurella multocida 10,102 (bovine); assay: MIC vs. Pasteurella multocida 10,102 (bovine); format: cell-based; details: Incubated at 37° C. overnight
Excerpt: as §2

[20] = tested on: Pasteurella haemolytica 114F (bovine); assay: MIC vs. Pasteurella haemolytica 114F (bovine); format: cell-based; details: Incubated at 37° C. overnight
Excerpt: as §2

[21] = tested on: Pasteurella haemolytica 128K (bovine); assay: MIC vs. Pasteurella haemolytica 128K (bovine); format: cell-based
Excerpt: as §2

[22] = tested on: Pasteurella haemolytica 129R (bovine); assay: MIC vs. Pasteurella haemolytica 129R (bovine); format: cell-based; details: Incubated at 37° C. overnight
Excerpt: as §2

[23] = tested on: Salmonella typhimurium; assay: MIC vs. Salmonella typhimurium; format: cell-based; details: Incubated at 37° C. overnight
Excerpt: as §2

[24] = tested on: Escherichia coli; assay: MIC vs. Escherichia coli; format: cell-based; design: unit not given beside the values; details: Incubated at 37° C. overnight
Excerpt: as §2

CC(=O)OCC1=C(C(=O)O)N2C(=O)[C@@H](NC(=O)Cc3cccs3)[C@H]2SC1 [Cephalothin, reference compound]
MIC vs. S. aureus ATCC 29213 [1]: 0.25
MIC vs. S. aureus 174 C [2]: 0.25
MIC vs. Staphylococcus aureus 10,092 [3]: 0.5
MIC vs. S. aureus F1C [4]: 0.25
MIC vs. Streptococcus uberis 150 L [5]: 0.125
MIC vs. Streptococcus uberis 166 L [6]: 0.0625
MIC vs. Streptococcus agalactiae 150 B [7]: 0.125
MIC vs. Streptococcus dysgalactiae [8]: 0.0625-0.125
MIC vs. Staphylococcus epidermidis 174B [9]: 0.5
MIC vs. Staphylococcus aureus 168H [10]: 0.5
MIC vs. Streptococcus agalactiae 150G [11]: 0.5
MIC vs. Streptococcus uberis 167I [12]: 32
MIC vs. Streptococcus dysgalactiae 152B [13]: 0.5
MIC vs. Staphylococcus aureus 170C [14]: 0.5
MIC vs. Streptococcus faecalis [15]: 16
MIC vs. Pasteurella multocida 108E (bovine) [16]: 0.5
MIC vs. Pasteurella multocida ATCC 12945 [17]: 0.25
MIC vs. Pasteurella multocida 1051 (swine) [18]: 0.25
MIC vs. Pasteurella multocida 10,102 (bovine) [19]: 0.5
MIC vs. Pasteurella haemolytica 114F (bovine) [20]: 1
MIC vs. Pasteurella haemolytica 128K (bovine) ([21]; Table 3, incubated at 37° C. overnight): 0.5
MIC against Pasteurella haemolytica Strain 128K ([21]; Table 3a, incubated at 37° overnight): 1
MIC vs. Pasteurella haemolytica 129R (bovine) [22]: 1
MIC vs. Salmonella typhimurium [23]: 4
MIC vs. Escherichia coli [24]: 8
